Consider 18 molecules from patent US20240383856A1 (Zedira GmbH, priority 2021, published 2024).

Data set [1] in a line: Caco-2 permeability assay (CacoReady kit). The class given is in vitro ADME. Conditions: human, Caco-2, Caco-2 barrier, CacoReady kit; above 1×10^−6 cm/s classified as permeable. The essentials:
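Papp values come from Caco-2 barrier studies intended to predict oral bioavailability; the manufacturer's procedure for the ready-made kit was followed.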

Data set [2] is described as follows: logD by shake flask method (octanol / PBS pH 7.4, HPLC). The format is physicochemical. The settings on record: octanol / PBS pH 7.4, shake flask. The essentials:
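Shake-flask partition of compound between octanol and phosphate-buffered saline at pH 7.4, with each phase quantified by HPLC to give LogD.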

The target in data set [3] is T1, recombinant human transglutaminase 2 (Homo sapiens, UniProt P21980).
T1 construct: purchased Zedira T022
T1 sequence (P21980 1-687): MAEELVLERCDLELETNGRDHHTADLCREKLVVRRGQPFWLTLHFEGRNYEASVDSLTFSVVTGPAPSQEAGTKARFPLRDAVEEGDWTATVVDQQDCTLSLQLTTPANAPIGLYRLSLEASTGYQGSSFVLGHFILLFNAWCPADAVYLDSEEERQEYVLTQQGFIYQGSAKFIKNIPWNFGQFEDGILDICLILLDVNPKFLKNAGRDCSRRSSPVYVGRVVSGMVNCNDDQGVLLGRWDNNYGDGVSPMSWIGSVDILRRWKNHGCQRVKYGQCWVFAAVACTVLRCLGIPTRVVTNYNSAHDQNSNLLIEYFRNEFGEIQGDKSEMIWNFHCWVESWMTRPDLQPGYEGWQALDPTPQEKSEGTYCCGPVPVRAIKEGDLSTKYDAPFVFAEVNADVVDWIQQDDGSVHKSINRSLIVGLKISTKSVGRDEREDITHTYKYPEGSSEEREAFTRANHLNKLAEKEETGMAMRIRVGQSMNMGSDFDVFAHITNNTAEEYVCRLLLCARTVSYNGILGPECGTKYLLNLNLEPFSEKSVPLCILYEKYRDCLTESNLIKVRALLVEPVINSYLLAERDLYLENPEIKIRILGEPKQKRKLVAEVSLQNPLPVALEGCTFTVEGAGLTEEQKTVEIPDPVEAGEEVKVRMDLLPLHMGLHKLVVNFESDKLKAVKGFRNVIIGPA
Kind of data set: Transglutaminase assay (DCC-assay): incorporation of dansylcadaverine into dimethylcasein. Conditions: recombinant human TG2 10 nM; dansylcadaverine incorporation into dimethylcasein; read-out: IC50 TG2. The class given is biochemical. The method, boiled down:
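Recombinant human TG2 (10 nM final) incorporates dansylcadaverine into N,N-dimethylcasein. Reaction mix: 50 mM Tris-HCl, 10 mM CaCl2, 10 mM glutathione, 2.5% glycerol, 16.7 µM dansylcadaverine, 4 µM dimethylcasein, 200 mM NaCl, pH 8.0. Fluorescence (ex 330/em 500 nm) was followed 30 min at 37 °C; the 20–30 min slope, expressed as % of 2% DMSO control, gave IC50.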

In turn, `CNC(=O)C(=O)CC[C@H](NC(=O)c1oc2ccccc2c1C)C(=O)Nc1cccn(CC2C3CC4CC(C3)CC2C4)c1=O` (stereo partly drawn) [II-110, (S)-N1-(1-(2-adamantylmethyl)-2-oxo-1,2-dihydropyridin-3-yl)-N6-methyl-2-(3-methylbenzofuran-2-carboxamido)-5-oxohexanediamide] yielded a Papp in data set [1] of 1 to 10 ×10⁻⁶ cm/s. In addition, the logD in data set [2] lay within 3 to 5. For the same molecule, in data set [3], the IC50 lay in the range of 40 to 400 nM.
In the case of `CNC(=O)C(=O)CC[C@H](NC(=O)c1cc2ccccc2[nH]1)C(=O)Nc1cccn(CC(=O)NC2C3CC4CC(C3)CC2C4)c1=O` (stereo partly drawn) [II-9, (S)-2-(1H-indole-2-carboxamido)-N1-(1-(2-(2-adamantylamino)-2-oxoethyl)-2-oxo-1,2-dihydropyridin-3-yl)-N6-methyl-5-oxohexanediamide], the Papp in data set [1] is 1 to 10 ×10⁻⁶ cm/s. The same molecule had a logD in data set [2] of 1 to 3. In data set [3], the IC50 was < 40 nM.
The molecule `CNC(=O)C(=O)CC[C@H](NC(=O)c1cc(Br)co1)C(=O)Nc1cccn(CC(=O)NC2C3CC4CC(C3)CC2C4)c1=O` (stereo partly drawn) [II-47, (S)-2-(4-bromofuran-2-carboxamido)-N1-(1-(2-(2-adamantylamino)-2-oxoethyl)-2-oxo-1,2-dihydropyridin-3-yl)-N6-methyl-5-oxohexanediamide] gave an apparent permeability (Papp) in data set [1] of 1 to 10 ×10⁻⁶ cm/s. For the same molecule, in data set [2], the logD lay in the range of 1 to 3. For the same molecule, in data set [3], the half-maximal inhibitory concentration (IC50) was < 40 nM.
For `CNC(=O)C(=O)CC[C@H](NC(=O)c1oc2ccccc2c1C)C(=O)Nc1cccn(CC(=O)NC23CC4CC5C2C[C@@H]2C[C@H]5C(C4)[C@H]3C2)c1=O` (stereo in doubt) [II-104, (S)-N1-(1-(2-(diamantane-1-amino)-2-oxoethyl)-2-oxo-1,2-dihydropyridin-3-yl)-N6-methyl-2-(3-methylbenzofuran-2-carboxamido)-5-oxohexanediamide], in that order: 1 to 10 ×10⁻⁶ cm/s, 1 to 3 and 40 to 400 nM.
`Cn1nncc1C(=O)N[C@@H](CCC(=O)C(N)=O)C(=O)Nc1cccn(CC(=O)NC2C3CC4CC(C3)CC2C4)c1=O` (stereo partly drawn) [II-127, (S)-N1-(1-(2-(2-adamantylamino)-2-oxoethyl)-2-oxo-1,2-dihydropyridin-3-yl)-2-(1-methyl-1H-1,2,3-triazole-5-carboxamido)-5-oxohexanediamide]: in data set [1], the apparent permeability coefficient (Papp) is < 1 ×10⁻⁶ cm/s. The logD in data set [2] is < 1. Besides, the IC50 in data set [3] lay in the range of 40 to 400 nM.
On to `CNC(=O)C(=O)CC[C@H](NC(=O)c1cnsn1)C(=O)Nc1cccn(CC(=O)NC2C3CC4CC(C3)CC2C4)c1=O` (stereo partly drawn) [II-142, (S)-N1-(1-(2-(2-adamantylamino)-2-oxoethyl)-2-oxo-1,2-dihydropyridin-3-yl)-N6-methyl-5-oxo-2-(1,2,5-thiadiazole-3-carboxamido)hexanediamide], for which the apparent permeability coefficient (Papp) in data set [1] was < 1 ×10⁻⁶ cm/s. In data set [2], this molecule registered a logD of 1 to 3. Also, in data set [3], the half-inhibitory concentration (IC50) lay within 40 to 400 nM.
As to `CNC(=O)C(=O)CC[C@H](NC(=O)c1oc2ccccc2c1C)C(=O)Nc1cccn(CC23CC4CC(CC(O)(C4)C2)C3)c1=O` [II-108, (2S)-N1-(1-((3-hydroxy-1-adamantyl)methyl)-2-oxo-1,2-dihydropyridin-3-yl)-N6-methyl-2-(3-methylbenzofuran-2-carboxamido)-5-oxohexanediamide], in data set [1], the apparent permeability (Papp) is < 1 ×10⁻⁶ cm/s. The logD in data set [2] lay within 1 to 3. In data set [3], the IC50 lay in the range of 40 to 400 nM.
For the molecule `CNC(=O)C(=O)CC[C@H](NC(=O)c1ccnn1C)C(=O)Nc1cccn(CC(=O)NC2C3CC4CC(C3)CC2C4)c1=O` (stereo partly drawn) [II-140, (S)-N1-(1-(2-(2-adamantylamino)-2-oxoethyl)-2-oxo-1,2-dihydropyridin-3-yl)-N6-methyl-2-(1-methyl-1H-pyrazole-5-carboxamido)-5-oxohexanediamide], the Papp in data set [1] is < 1 ×10⁻⁶ cm/s. Further, in data set [2], the pH-dependent lipophilicity (logD) was < 1. In data set [3], the 50% inhibitory concentration (IC50) is 40 to 400 nM.
As for `CNC(=O)C(=O)CC[C@H](NC(=O)[C@@H]1CCCNC1)C(=O)Nc1cccn(CC(=O)NC2C3CC4CC(C3)CC2C4)c1=O` (stereo partly drawn) [II-59, (S)-N1-(1-(2-(2-adamantylamino)-2-oxoethyl)-2-oxo-1,2-dihydropyridin-3-yl)-N6-methyl-5-oxo-2-((R)-piperidine-3-carboxamido)hexanediamide], the Papp in data set [1] was < 1 ×10⁻⁶ cm/s. Moreover, in data set [2], the log distribution coefficient (logD) is 1 to 3. Also, the IC50 in data set [3] was in the range of 40 to 400 nM.
With `CNC(=O)C(=O)CC[C@H](NC(=O)c1csc(Cl)c1)C(=O)Nc1cccn(CC(=O)NC2C3CC4CC(C3)CC2C4)c1=O` (stereo partly drawn) [II-27, (S)-2-(5-chlorothiophene-3-carboxamido)-N1-(1-(2-(2-adamantylamino)-2-oxoethyl)-2-oxo-1,2-dihydropyridin-3-yl)-N6-methyl-5-oxohexanediamide], the Papp in data set [1] lay in the range of 1 to 10 ×10⁻⁶ cm/s. The molecule further gave a log distribution coefficient (logD) in data set [2] of 1 to 3. In addition, the IC50 in data set [3] fell in the range of 40 to 400 nM.
`CNC(=O)C(=O)CC[C@H](NC(=O)c1cccnc1)C(=O)Nc1cccn(CC(=O)NC2C3CC4CC(C3)CC2C4)c1=O` (stereo partly drawn) [II-111, (S)-N1-(1-(2-(2-adamantylamino)-2-oxoethyl)-2-oxo-1,2-dihydropyridin-3-yl)-N6-methyl-2-(nicotinamido)-5-oxohexanediamide]: the Papp in data set [1] is < 1 ×10⁻⁶ cm/s. In data set [2], this molecule returned a logD of 1 to 3. Moreover, the IC50 in data set [3] was < 40 nM.
On to `CNC(=O)C(=O)CC[C@H](NC(=O)c1c(C)noc1C)C(=O)Nc1cccn(CC(=O)NC2C3CCCC2CC3)c1=O` (stereo partly drawn) [II-172, (2S)-N1-(1-(2-(bicyclo[3.2.1]octan-8-ylamino)-2-oxoethyl)-2-oxo-1,2-dihydropyridin-3-yl)-2-(3,5-dimethylisoxazole-4-carboxamido)-N6-methyl-5-oxohexanediamide], for which, in data set [1], the Papp is 1 to 10 ×10⁻⁶ cm/s. The logD in data set [2] is < 1. Moreover, in data set [3], the IC50 lay in the range of 40 to 400 nM.
For the molecule `CNC(=O)C(=O)CC[C@H](NC(=O)c1cncn1C)C(=O)Nc1cccn(CC(=O)NC23CC4(C)CC(C)(CC(C)(C4)C2)C3)c1=O` [II-211, (S)-N1-(1-(2-(3,5,7-trimethyl-1-adamantylamino)-2-oxoethyl)-2-oxo-1,2-dihydropyridin-3-yl)-N6-methyl-2-(1-methyl-1H-imidazole-5-carboxamido)-5-oxohexanediamide], in data set [1], the Papp is < 1 ×10⁻⁶ cm/s. Moreover, the log distribution coefficient (logD) in data set [2] was 1 to 3. In addition, the IC50 in data set [3] lay in the range of 40 to 400 nM.
For `CNC(=O)C(=O)CC[C@H](NC(=O)c1cc(Br)c(Cl)s1)C(=O)Nc1cccn(CC(=O)NC2C3CC4CC(C3)CC2C4)c1=O` (stereo partly drawn) [II-44, (S)-2-(4-bromo-5-chlorothiophene-2-carboxamido)-N1-(1-(2-(2-adamantylamino)-2-oxoethyl)-2-oxo-1,2-dihydropyridin-3-yl)-N6-methyl-5-oxohexanediamide], in that order: 1 to 10 ×10⁻⁶ cm/s, 3 to 5 and < 40 nM.
Consider `CNC(=O)C(=O)CC[C@H](NC(=O)c1csc(Br)n1)C(=O)Nc1cccn(CC(=O)NC2C3CC4CC(C3)CC2C4)c1=O` (stereo partly drawn) [II-35, (S)-2-(2-bromothiazole-4-carboxamido)-N1-(1-(2-(2-adamantylamino)-2-oxoethyl)-2-oxo-1,2-dihydropyridin-3-yl)-N6-methyl-5-oxohexanediamide], for which the apparent permeability coefficient (Papp) in data set [1] fell in the range of 1 to 10 ×10⁻⁶ cm/s. This molecule had a logD in data set [2] of 1 to 3. Also, in data set [3], the IC50 is 40 to 400 nM.
`CNC(=O)C(=O)CC[C@H](NC(=O)c1cc2cc(Br)ccc2s1)C(=O)Nc1cccn(CC(=O)NC2C3CC4CC(C3)CC2C4)c1=O` (stereo partly drawn) showed an apparent permeability coefficient (Papp) in data set [1] of 1 to 10 ×10⁻⁶ cm/s. The molecule further came in with a log distribution coefficient (logD) in data set [2] of 3 to 5. Also, the half-inhibitory concentration (IC50) in data set [3] is < 40 nM.
For the molecule `CNC(=O)C(=O)CC[C@H](NC(=O)c1nncs1)C(=O)Nc1cccn(CC(=O)NC23CC(C2)C3)c1=O` [II-200, (S)-N1-(1-(2-(bicyclo[1.1.1]pentan-1-ylamino)-2-oxoethyl)-2-oxo-1,2-dihydropyridin-3-yl)-N6-methyl-5-oxo-2-(1,3,4-thiadiazole-2-carboxamido)hexanediamide], the Papp in data set [1] is < 1 ×10⁻⁶ cm/s. Also, the logD in data set [2] is < 1. Moreover, in data set [3], the half-maximal inhibitory concentration (IC50) lay within 40 to 400 nM.
For `CNC(=O)C(=O)CC[C@H](NC(=O)c1ccnnc1)C(=O)Nc1cccn(CC(=O)NC2C3CC4CC(C3)CC2C4)c1=O` (stereo partly drawn) [II-113, (S)-N1-(1-(2-(2-adamantylamino)-2-oxoethyl)-2-oxo-1,2-dihydropyridin-3-yl)-N6-methyl-5-oxo-2-(pyridazine-4-carboxamido)hexanediamide], the Papp in data set [1] was < 1 ×10⁻⁶ cm/s. In addition, in data set [2], the logD is < 1. In addition, in data set [3], the IC50 lay within 40 to 400 nM.
